Laboratory results from patent US6610524B2, “Thermostable phospholipase A1 mutants and a process for preparing the same” (priority 2000, dated 2003).

Legend:
Assay type in all cases: biochemical
Settings in all cases: pH 8.0, 37° C., mean value of 2 experiments
[1] = target: Serratia sp. strain MK1 phospholipase A1 mutant TA3 (substitutions at positions 32, 39, 65, 105, 153, 158 and 303 with P, A, L, V, I, I and E); SEQ ID NO: 6; DNA (Serratia sp. MK1, UniProt Q9X9D8, E105V/K303E/M153I/Q32P/S158I/S65L/T39A); test: kinetic parameters of phospholipase A1 mutant TA3 (pH-stat titration of fatty acid released from phosphatidylcholine)
Description: (§1) The amino acid sequence of TA3 was deduced from the nucleotide sequence of TA3 comprising thermostable phospholipase A1 mutant gene and set forth in SEQ ID NO: 6, and the amino acid sequence of TA13 was deduced from the nucleotide sequence of TA13 and set forth in SEQ ID NO: 7. When the amino acid sequences of thermostable phopholipase mutants, TA3 and TA13 were compared with that of naturally occurring phospholipase A1, TA3 and TA13 were identified as novel proteins with 7 and 6 amino acid substitutions, respectively. Phospholipase TA3 has been identified to have amino acid substitutions at positions of 32, 39, 65, 105, 153, 158 and 303 with P, A, L, V, I, I, and E and phospholipase TA13 has been identified to have amino acid substitutions at positions of 36, 102, 154, 158, 281 and 291 with Q, N, K, W, Q and N, respectively.
(§2) Catalytic activity of phospholipase A1 was determined using pH-stat titration method. The amount of released fatty acid from enzyme reaction was measured at 37° C. in a pH-stat (Radiometer Copenhagen, France) equipped with autotiter and autoburette. To a substrate solution containing 3.4 mM phosphatidylcholine, 10 mM CaCl2 and 2.6 mM deoxycholic acid, sonicated for emulsification, was added phospholipase A1 enzyme solution and then the amount of released fatty acid was measured. One unit is defined as the amount of enzyme that releases 1μ mole of free fatty acid per minute from phosphatidylcholine at 37° C. and pH 8.0 in a pH-stat.

[2] = target: Serratia sp. strain MK1 phospholipase A1 (PLA1), wild-type (naturally occurring; gene SEQ ID NO: 1) (Serratia sp. MK1, UniProt Q9X9D8); test: kinetic parameters of phospholipase A1 (pH-stat titration of fatty acid released from phosphatidylcholine)
Method: as §2

[3] = target: Serratia sp. strain MK1 phospholipase A1 mutant TA13 (substitutions at positions 36, 102, 154, 158, 281 and 291 with Q, N, K, W, Q and N); SEQ ID NO: 7; DNA SEQ (Serratia sp. MK1, UniProt Q9X9D8, E35Q/K290N/L157W/L280Q/M153K/S101N); test: kinetic parameters of phospholipase A1 mutant TA13 (pH-stat titration of fatty acid released from phosphatidylcholine)
Description: as §1, §2

Serratia sp. strain MK1 phospholipase A1 mutant TA3 (substitutions at positions 32, 39, 65, 105, 153, 158 and 303 with P, A, L, V, I, I and E); SEQ ID NO: 6; DNA, sequence (Q9X9D8 entry or part of it Q32P/T39A/S65L/E105V/M153I/S158I/K303E): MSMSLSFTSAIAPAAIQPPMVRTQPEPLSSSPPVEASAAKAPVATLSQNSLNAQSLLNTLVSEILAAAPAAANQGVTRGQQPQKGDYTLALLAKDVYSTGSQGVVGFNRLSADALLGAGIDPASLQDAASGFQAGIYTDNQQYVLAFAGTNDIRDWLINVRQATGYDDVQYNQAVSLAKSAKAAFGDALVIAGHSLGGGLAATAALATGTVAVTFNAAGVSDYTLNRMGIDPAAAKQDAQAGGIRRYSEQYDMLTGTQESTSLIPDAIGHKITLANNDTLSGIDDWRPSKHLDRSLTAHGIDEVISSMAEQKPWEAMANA
Serratia sp. strain MK1 phospholipase A1 (PLA1), wild-type (naturally occurring; gene SEQ ID NO: 1), sequence (Q9X9D8 entry or part of it): as the sequence (Q9X9D8 entry or part of it Q32P/T39A/S65L/E105V/M153I/S158I/K303E) above, with P32Q, A39T, L65S, V105E, I153M, I158S, E303K counted along it
Serratia sp. strain MK1 phospholipase A1 mutant TA13 (substitutions at positions 36, 102, 154, 158, 281 and 291 with Q, N, K, W, Q and N); SEQ ID NO: 7; DNA SEQ, sequence (Q9X9D8 entry or part of it E35Q/S101N/M153K/L157W/L280Q/K290N): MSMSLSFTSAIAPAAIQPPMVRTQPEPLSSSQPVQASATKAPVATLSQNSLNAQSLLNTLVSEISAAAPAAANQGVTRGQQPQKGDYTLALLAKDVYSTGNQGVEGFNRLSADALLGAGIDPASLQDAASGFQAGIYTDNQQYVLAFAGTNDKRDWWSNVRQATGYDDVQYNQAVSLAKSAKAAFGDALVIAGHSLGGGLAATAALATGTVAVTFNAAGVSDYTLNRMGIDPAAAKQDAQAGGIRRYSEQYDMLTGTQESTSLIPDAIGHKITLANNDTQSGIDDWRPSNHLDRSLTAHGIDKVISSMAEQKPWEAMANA

Q: For phosphatidylcholine, which Kcat [1] is on record?
A: Its Kcat is 10.92 S^−1.

Q: What about the Kcat/Km [1] of the same substance?
A: Its Kcat/Km is 0.104 S^−1 μM.

Q: What about the Km [1] of the same substance?
A: The Km was 105 µM.

Q: And the Kcat [2]?
A: The Kcat was 11.23 S^−1.

Q: And the Kcat/Km [2]?
A: The Kcat/Km was 0.093 S^−1 μM.

Q: What about the Km [2] of the same substance?
A: The Km was 114 µM.

Q: What about the Kcat [3] of the same substance?
A: The Kcat was 13.67 S^−1.

Q: And the Kcat/Km [3]?
A: The Kcat/Km was 0.114 S^−1 μM.

Q: And the Km [3]?
A: The Km was 120 µM.
